How the values were obtained:
GST-Plk1 = molecular target: T1, GST-Plk1 (Homo sapiens, UniProt P53350); test: Biochemical Characterization Assay A (HTRF, phosphorylation of GST-p53); settings: full-length GST-Plk1, GST-p53 substrate, HTRF signal
T1 construct: Full-length, active GST-Plk1 was purified from Sf9 insect cells; made in house; host or cells: Sf9 insect cells
Procedure: Full-length, active GST-Plk1 was purified from Sf9 insect cells, and full-length GST-p53 was purified in E. coli. Anti-phospho p53 antibody was purchased from Cell Signaling Technology. Europium-conjugated anti-rabbit antibody was purchased from PerkinElmer Life and Analytical Sciences. APC-conjugated anti-GST antibody was purchased from Prozyme.
To two microliters of compound (0.6 nM-4 mM) in DMSO or plain DMSO for control wells, 38 microliters of 20 mM HEPES pH 7, 50 mM NaCl, 10 mM MgCl2, 0.5 mM TCEP, 0.1 mM sodium orthovanadate, 0.1 mg/ml BSA, and 0.05% Triton X-100 (Kinase Assay Buffer) were added. Eight microliters of the compound solution were added to a 384-well black microtiter plate, followed by six microliters of GST-p53 (17 ug/ml) and ATP (333 uM) in Kinase Assay Buffer. Six microliters of GST-Plk1 (3 ug/ml) in Kinase Assay Buffer were then added and the solution incubated at 37° C. for 35 minutes. Six microliters of solution containing 43 mM EDTA to stop the reaction and a 1:600 dilution of anti-phospho-p53 antibody in 20 mM HEPES pH 7, 50 mM NaCl, and 0.5 mg/ml BSA (Antibody Binding Buffer) were added and the solution incubated at 37° C. for 30 minutes. Six microliters of solution containing 9 nM europium-conjugated anti-rabbit antibody and 120 nM APC-conjugated anti-GST antibody in Antibody Binding Buffer were then added and the mixture incubated at room temperature for 1.5 hours. The HTRF signal was read on the Envision reader (PerkinElmer Life and Analytical Sciences).
(§1) The IC50 values for each compound were generated using an Excel template. The % conversion readings of Total and Blank were used as 0% and 100% inhibition. The percent inhibition values of reactions in the presence of compounds were calculated, and plotted against compound concentrations. All data were fitted into a Dose Response One Site model (4 parameter logistic model) as the following: (A+4B−A)/(1+((x/C)^13)))), with A and B as the bottom and top of the curve (highest and lowest inhibition), respectively, and C as IC50 and D as Hill Coefficient of the compound.

PLK1 = molecular target: T2, PLK1 (Homo sapiens, UniProt P53350); test: Biochemical Characterization Assay B (peptide substrate, LABCHIP EZ Reader II); settings: PLK1, peptide RRRAGALMDASFEEQ-CONH2, % conversion on LABCHIP EZ Reader II
T2 construct: Full-length, active GST-Plk1 was purified from Sf9 insect cells; GST (N); made in house; host or cells: Sf9 insect cells
T2 sequence (P53350 whole entry): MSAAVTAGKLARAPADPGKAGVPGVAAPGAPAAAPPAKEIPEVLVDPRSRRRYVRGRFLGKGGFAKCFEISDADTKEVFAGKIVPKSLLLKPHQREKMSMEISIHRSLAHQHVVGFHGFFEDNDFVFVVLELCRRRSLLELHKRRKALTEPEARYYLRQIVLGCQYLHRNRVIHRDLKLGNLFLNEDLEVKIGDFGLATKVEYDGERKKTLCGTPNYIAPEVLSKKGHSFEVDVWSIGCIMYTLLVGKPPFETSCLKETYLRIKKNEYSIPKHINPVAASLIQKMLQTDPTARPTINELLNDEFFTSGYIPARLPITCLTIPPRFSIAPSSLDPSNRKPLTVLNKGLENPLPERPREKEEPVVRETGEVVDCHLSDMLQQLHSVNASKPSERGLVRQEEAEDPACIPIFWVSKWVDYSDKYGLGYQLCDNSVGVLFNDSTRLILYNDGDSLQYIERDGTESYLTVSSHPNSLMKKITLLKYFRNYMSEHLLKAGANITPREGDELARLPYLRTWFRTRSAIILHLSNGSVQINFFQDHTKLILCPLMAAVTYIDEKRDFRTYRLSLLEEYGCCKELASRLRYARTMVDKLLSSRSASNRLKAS
Procedure: Compounds were serially diluted to 6400, 2133, 711, 237, 79, 26, 8.78, 2.93, 0.98 and 0.33 μM in 100% DMSO. Diluted compound was further diluted 20 fold with Kinase Assay Buffer (KAB). Peptide RRRAGALMDASFEEQ-CONH2 (MW 2090) was diluted to 1.2 μM with KAB and ATP was added to 400 μM. PLK1 stock, prepared as described above, was diluted to 3 μg protein/mL with KAB right before it was added to MATRIX 384-Well Polypropylene Black Plates to start the reaction. 20 μL of KAB diluted compounds (or 5% DMSO in KAB for Total and Blank), 20 μL of KAB diluted peptide with ATP and 40 μL of KAB diluted PLK1 solution (KAB without PLK 1 for Blanks) were transferred to each well of the polypropylene plates. The reaction mixtures were incubated at room temperature for 40 minutes. Reactions were stopped by addition of 10 uL Reaction Stopping Buffer (RSB) to each well. Plates were then read on LABCHIP EZ Reader II from Caliper Life Science.
as §1

T1 sequence (P53350 whole entry): as above

IC50 (GST-Plk1): 19 nM
IC50 (PLK1): 60 nM
Structure (SMILES): COc1cc2ncn(-c3nc(-c4cccc(Cl)c4)c(C(N)=O)s3)c2cc1OCCCN1CCN(C)CC1 [Example 42, 4-(3-Chloro-phenyl)-2-{5-methoxy-6-[3-(4-methyl-piperazin-1-yl)-propoxy]-benzoimidazol-1-yl}-thiazole-5-carboxylic acid amide]
